This assay deals with T1, human ALK5 (Homo sapiens, UniProt P36897).
T1 construct: human ALK5 (recombinant TGF β1 N-term GST-tagged, 80-end); GST (N); purchased
T1 sequence (P36897 80-503 limits assumed): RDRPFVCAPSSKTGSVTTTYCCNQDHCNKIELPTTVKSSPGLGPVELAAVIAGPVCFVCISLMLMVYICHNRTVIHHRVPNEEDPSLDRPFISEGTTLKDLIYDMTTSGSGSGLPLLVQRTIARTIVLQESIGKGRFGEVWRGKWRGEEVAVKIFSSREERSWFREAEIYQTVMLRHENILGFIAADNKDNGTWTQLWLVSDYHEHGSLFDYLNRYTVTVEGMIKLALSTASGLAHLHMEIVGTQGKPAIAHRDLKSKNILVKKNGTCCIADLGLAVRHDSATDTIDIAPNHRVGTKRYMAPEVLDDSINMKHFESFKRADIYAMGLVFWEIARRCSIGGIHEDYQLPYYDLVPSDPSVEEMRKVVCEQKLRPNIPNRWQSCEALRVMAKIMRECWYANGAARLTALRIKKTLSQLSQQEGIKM
Nature of the assay: ADP-GLO Kinases assay of ALK5 enzymatic activity. Particulars: purified recombinant human ALK5, TGFβ1 peptide substrate, pIC50 converted to pKi by Cheng-Prusoff, high ATP protocol (15 μM) for very potent compounds, 25° C. The assay is classed as biochemical. In outline: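 Purified ALK5 preincubated 15 min with compound, then reacted with substrate and ATP; ADP formed read by ADP-Glo luminescence after 120 min or 60 min reaction, all steps at 25° C. 11-point concentration-response; pIC50 converted to pKi via Cheng-Prusoff.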
(ADP-Glo turns the ADP formed in a reaction into a luminescent signal.)
As for `CSc1nnc(-c2cc(Cl)ccc2F)cc1Nc1ccnc(NC(=O)CCN2CCNCC2)c1` [Example 62, N-(4-{[6-(5-chloro-2-fluorophenyl)-3-(methylsulfanyl)pyridazin-4-yl]amino}pyridin-2-yl)-3-(piperazin-1-yl)propanamide], the Ki was no more than 0.1 nM.
The same measure for `CN1CCN(CCC(=O)Nc2cc(Nc3cc(-c4cc(Cl)ccc4F)nnc3OCCCS(C)(=O)=O)ccn2)CC1` [Example 7, N-(4-{[6-(5-chloro-2-fluorophenyl)-3-(3-methanesulfonylpropoxy)pyridazin-4-yl]amino}pyridin-2-yl)-3-(4-methylpiperazin-1-yl)propanamide]: no more than 0.1 nM; for `CSCCCOc1nnc(-c2cc(Cl)ccc2F)cc1Nc1ccnc(N)c1` [Example 55, N4-[6-(5-chloro-2-fluorophenyl)-3-[3-(methylsulfanyl)propoxy]pyridazin-4-yl]pyridine-2,4-diamine]: 0.126 to 0.316 nM; for `CN1CC2(C1)CN(CC(=O)Nc1cc(Nc3cc(-c4cc(Cl)ccc4F)nnc3SCCO)ccn1)C2` [Example 24, N-(4-{[6-(5-chloro-2-fluorophenyl)-3-[(2-hydroxyethyl)sulfanyl]pyridazin-4-yl]amino}pyridin-2-yl)-2-{6-methyl-2,6-diazaspiro[3.3]heptan-2-yl}acetamide]: no more than 0.1 nM.
As for `CN1CCN(CCC(=O)Nc2cc(Nc3cc(-c4cc(Cl)ccc4F)nnc3OCC3COC(C)(C)O3)ccn2)CC1` (stereo not shown) [Example 77, N-(4-{[6-(5-chloro-2-fluorophenyl)-3-[(2,2-dimethyl-1,3-dioxolan-4-yl)methoxy]pyridazin-4-yl]amino}pyridin-2-yl)-3-(4-methylpiperazin-1-yl)propanamide], the figure is no more than 0.1 nM.
The same measure for `CN1CCN(CCC(=O)Nc2cc(Nc3cc(-c4cc(Cl)ccc4F)nnc3SCCNC(=O)C3COC(=O)C3)ccn2)CC1` (racemic) [Example 205, N-(2-{[6-(5-chloro-2-fluorophenyl)-4-({2-[3-(4-methylpiperazin-1-yl)propanamido]pyridin-4-yl}amino)pyridazin-3-yl]sulfanyl}ethyl)-5-oxooxolane-3-carboxamide]: no more than 0.1 nM; for `CN1CCN(CCC(=O)Nc2cc(Nc3cc(-c4cc(Cl)ccc4F)nnc3SCc3ccc(C(=O)O)cc3)ccn2)CC1` [Example 203, 4-({[6-(5-chloro-2-fluorophenyl)-4-({2-[3-(4-methylpiperazin-1-yl)propanamido]pyridin-4-yl}amino)pyridazin-3-yl]sulfanyl}methyl)benzoic acid]: no more than 0.1 nM.
With `O=C(Nc1cc(Nc2cc(-c3cc(Cl)ccc3F)nnc2SCCO)ccn1)C1CC(N2CCC(F)(F)C(CO)C2)C1` (racemic) [Example 170, N-(4-{[6-(5-chloro-2-fluorophenyl)-3-[(2-hydroxyethyl)sulfanyl]pyridazin-4-yl]amino}pyridin-2-yl)-3-[4,4-difluoro-3-(hydroxymethyl)piperidin-1-yl]cyclobutane-1-carboxamide], the Ki was no more than 0.1 nM.
As for `COc1ccc2c(Nc3cc(-c4cc(Cl)ccc4F)nnc3OCCN(C)C)ccnc2c1` [Example 39, N-[6-(5-chloro-2-fluorophenyl)-3-[2-(dimethylamino)ethoxy]pyridazin-4-yl]-7-methoxyquinolin-4-amine], the figure is 0.398 to 3.16 nM; as for `O=C(CCN1CCNCC1)Nc1cc(Nc2cc(-c3cc(Cl)ccc3F)nnc2SCCO)ccn1` [Example 153, N-(4-{[6-(5-chloro-2-fluorophenyl)-3-[(2-hydroxyethyl)sulfanyl]pyridazin-4-yl]amino}pyridin-2-yl)-3-(piperazin-1-yl)propanamide], no more than 0.1 nM.
`Cc1ccc(F)c(-c2cc(Nc3ccnc(NC(=O)CCN4CCN(C)CC4)c3)c(OCC(F)(F)F)nn2)n1` [Example 68, N-(4-{[6-(3-fluoro-6-methylpyridin-2-yl)-3-(2,2,2-trifluoroethoxy)pyridazin-4-yl]amino}pyridin-2-yl)-3-(4-methylpiperazin-1-yl)propanamide]: the Ki is 0.126 to 0.316 nM.
For the compound `CN1CCN(CCC(=O)Nc2cc(Nc3cc(-c4cc(Cl)ccc4F)nnc3N(C)[C@H]3CCOC3)ccn2)CC1` (single isomer, unassigned) [Example 106, N-(4-{[6-(5-chloro-2-fluorophenyl)-3-[methyl(oxolan-3-yl)amino]pyridazin-4-yl]amino}pyridin-2-yl)-3-(4-methylpiperazin-1-yl)propanamide], the Ki is 0.126 to 0.316 nM.
Turning to `CN1CCN(CC23CC(C(=O)Nc4cc(Nc5cc(-c6cc(Cl)ccc6F)nnc5SCCO)ccn4)(C2)C3)CC1` [Example 180, N-(4-{[6-(5-chloro-2-fluorophenyl)-3-[(2-hydroxyethyl)sulfanyl]pyridazin-4-yl]amino}pyridin-2-yl)-3-[(4-methylpiperazin-1-yl)methyl]bicyclo[11.1.1]pentane-1-carboxamide], the Ki was no more than 0.1 nM.
As for `Cc1oc(=O)oc1CSc1nnc(-c2cc(Cl)ccc2F)cc1Nc1ccnc(NC(=O)CCN2CCN(C)CC2)c1` [Example 190, N-(4-{[6-(5-chloro-2-fluorophenyl)-3-{[(5-methyl-2-oxo-2H-1,3-dioxol-4-yl)methyl]sulfanyl}pyridazin-4-yl]amino}pyridin-2-yl)-3-(4-methylpiperazin-1-yl)propanamide], the figure is no more than 0.1 nM; as for `C[C@@H]1CN(CCC(=O)Nc2cc(Nc3cc(-c4cc(Cl)ccc4F)nnc3SCCO)ccn2)C[C@H](C)N1` [Example 178, N-(4-{[6-(5-chloro-2-fluorophenyl)-3-[(2-hydroxyethyl)sulfanyl]pyridazin-4-yl]amino}pyridin-2-yl)-3-(3,5-dimethylpiperazin-1-yl)propanamide], no more than 0.1 nM.
For `O=C(Nc1cc(Nc2cc(-c3cc(Cl)ccc3F)nnc2SCCO)ccn1)C12CC(CN3CCN(C4CC4)CC3)(C1)C2` [Example 183, N-(4-{[6-(5-chloro-2-fluorophenyl)-3-[(2-hydroxyethyl)sulfanyl]pyridazin-4-yl]amino}pyridin-2-yl)-3-[(4-cyclopropylpiperazin-1-yl)methyl]bicyclo[1.1.1]pentane-1-carboxamide], the Ki was 0.126 to 0.316 nM.
The same measure for `CN1CCN(CCC(=O)Nc2cc(Nc3cc(-c4cc(Cl)ccc4F)nnc3N(C)C)ccn2)CC1` [Example 30, N-(4-{[6-(5-chloro-2-fluorophenyl)-3-(dimethylamino)pyridazin-4-yl]amino}pyridin-2-yl)-3-(4-methylpiperazin-1-yl)propanamide]: no more than 0.1 nM; for `COC(=O)c1cc2c(Nc3cc(-c4cc(Cl)ccc4F)nnc3OCCCN(C)C)ccnc2[nH]1` [Example 10, methyl 4-{[6-(5-chloro-2-fluorophenyl)-3-[3-(dimethylamino)propoxy]pyridazin-4-yl]amino}-1H-pyrrolo[2,3-b]pyridine-2-carboxylate]: 0.398 to 3.16 nM; for `CN1CCN(CCC(=O)Nc2cc(Nc3cc(-c4cc(Cl)ccc4F)nnc3N(C)C3CCOC3)ccn2)CC1` (racemic) [Example 105, N-(4-{[6-(5-chloro-2-fluorophenyl)-3-[methyl(oxolan-3-yl)amino]pyridazin-4-yl]amino}pyridin-2-yl)-3-(4-methylpiperazin-1-yl)propanamide]: no more than 0.1 nM.
The same measure for `CSCCCOc1nnc(-c2cc(Cl)ccc2F)cc1Nc1ccnc(NC(=O)CCN2CCN(C)CC2)c1` [Example 4, N-(4-{[6-(5-chloro-2-fluorophenyl)-3-[3-(methylsulfanyl)propoxy]pyridazin-4-yl]amino}pyridin-2-yl)-3-(4-methylpiperazin-1-yl)propanamide]: 0.126 to 0.316 nM; for `CCOC(=O)C(C)(C)CN(C)c1nnc(-c2cc(Cl)ccc2F)cc1Nc1ccnc(NC(=O)CCN2CCN(C)CC2)c1` [Example 145, ethyl 3-{[6-(5-chloro-2-fluorophenyl)-4-({2-[3-(4-methylpiperazin-1-yl)propanamido]pyridin-4-yl}amino)pyridazin-3-yl](methyl)amino}-2,2-dimethylpropanoate]: 0.126 to 0.316 nM; for `CN1CCN(CCC(=O)Nc2cc(Nc3cc(-c4cc(Cl)ccc4F)nnc3SCc3cccc(C(=O)O)c3)ccn2)CC1` [Example 196, 3-({[6-(5-chloro-2-fluorophenyl)-4-({2-[3-(4-methylpiperazin-1-yl)propanamido]pyridin-4-yl}amino)pyridazin-3-yl]sulfanyl}methyl)benzoic acid]: 0.126 to 0.316 nM.
As for `CS(=O)(=O)CCCOc1nnc(-c2cc(Cl)ccc2F)cc1Nc1ccnc(N)c1` [Example 56, N4-[6-(5-chloro-2-fluorophenyl)-3-(3-methanesulfonylpropoxy)pyridazin-4-yl]pyridine-2,4-diamine], the figure is 0.398 to 3.16 nM; as for `COC(=O)C12CC(COc3nnc(-c4cc(Cl)ccc4F)cc3Nc3ccnc(NC(=O)CCN4CCN(C)CC4)c3)(C1)C2` [Example 125, methyl 3-({[6-(5-chloro-2-fluorophenyl)-4-({2-[3-(4-methylpiperazin-1-yl)propanamido]pyridin-4-yl}amino)pyridazin-3-yl]oxy}methyl)bicyclo[1.1.1]pentane-1-carboxylate], 0.126 to 0.316 nM.
Regarding `CN(C)CCOc1nnc(-c2cc(Cl)ccc2F)cc1Nc1ccnc2[nH]ncc12` [Example 42, 6-(5-chloro-2-fluorophenyl)-3-[2-(dimethylamino)ethoxy]-N-{1H-pyrazolo[3,4-b]pyridin-4-yl}pyridazin-4-amine], the Ki is 0.398 to 3.16 nM.

In general, Ki refers to a measure of affinity in units of concentration, obtained from inhibition or displacement.
